# From patent US11827627B2, “N-(hydroxyalkyl (hetero)aryl) tetrahydrofuran carboxamides as modulators of sodium channels” (VERTEX PHARMACEUTICALS INCORPORATED, priority 2021, dated 2023)
# Target: human NaV 1.8 (Homo sapiens, UniProt Q9Y5Y9)
# Assay: E-VIPR assay detecting and measuring NaV inhibition properties
# Assay type: cell-based
# Conditions: HEK cells expressing a truncated form of human NaV 1.8; electrical stimulation, membrane potential FRET dyes
# Excerpt: E-VIPR Assay Detecting and Measuring NaV Inhibition Properties
# Sodium ion channels are voltage-dependent proteins that can be activated by inducing membrane voltage changes by applying electric fields. The electrical stimulation instrument and methods of use, referred to as E-VIPR, are described in International Publication No. WO 2002/008748 A3 and C.-J. Huang et al. Characterization of voltage-gated sodium channel blockers by electrical stimulation and fluorescence detection of membrane potential, 24 Nature Biotech. 439-46 (2006), both of which are incorporated by reference in their entirety. The instrument comprises a microtiter plate handler, an optical system for exciting the coumarin dye while simultaneously recording the coumarin and oxonol emissions, a waveform generator, a current- or voltage-controlled amplifier, and parallel electrode pairs that are inserted into assay plate wells. Under integrated computer control, this instrument passes user-programmed electrical stimulus protocols to cells within the wells of the microtiter plate.
# 16-20 hours prior to running the assay on E-VIPR, HEK cells expressing a truncated form of human NaV 1.8 with full channel activity were seeded into microtiter 384-well plates, pre-coated with matrigel, at a density of 25,000 cells per well. 2.5-5% KIR2.1 Bacmam virus was added to the final cell suspension before seeding into cell plates. HEK cells were grown in Dulbecco's Modified Eagle's Medium (DMEM) supplemented with 10% FBS (Fetal Bovine Serum, qualified; Sigma #F4135), 1% NEAA (Non-Essential Amino Acids, Gibco #11140), 1% HEPES (Gibco #15630), 1% Pen-Strep (Penicillin-Streptomycin; Gibco #15140) and 5 μg/ml Blasticidin (Gibco #R210-01). Cells were expanded in vented cap cell culture flasks, with 90-95% humidity and 5% CO2.
# Reagents and Stock Solutions:
# 100 mg/mL Pluronic F-127 (Sigma #P2443), in dry DMSO
# Compound Plates: Corning 384-well Polypropylene Round Bottom #3656
# Cell Plates: 384-well tissue culture treated plates (Greiner #781091-2B)
# 2.5-5% KIR 2.1 Bacmam virus (produced in-house), prepared as described in Section 3.3 of J. A. Fornwald et al., Gene Expression in Mammalian Cells Using BacMam, a Modified Baculovirus System, 1350 Methods in Molecular Biology 95-116 (2016), the entire contents of which are incorporated by reference. The concentration used can be dependent on viral titer of each batch.
# 5 mM DiSBAC6(3), a voltage sensitive oxonol acceptor (CAS number 169211-44-3; 5-[3-(1,3-dihexylhexahydro-4,6-dioxo-2-thioxo-5-pyrimidinyl)-2-propen-1-ylidene]-1,3-dihexyldihydro-2-thioxo-4,6(1H,5H)-pyrimidinedione), in dry DMSO. The preparation of DiSBAC6(3) is analogous to that of DiSBAC4(3) as described in Voltage Sensing by Fluorescence Resonance Energy Transfer in Single Cells, Gonzalez, J. E. and Tsien, R. Y. (1995) Biophys. J. 69, 1272-1280.
# 5 mM CC2-DMPE, a commercially available membrane-bound coumarin phospholipid FRET donor (ThermoFisher Scientific catalog number K1017, CAS number 393782-57-5; tetradecanoic acid, 1,1′-[(1R)-1-[8-(6-chloro-7-hydroxy-2-oxo-2H-1-benzopyran-3-yl)-3-hydroxy-3-oxido-8-oxo-2,4-dioxa-7-aza-3-phosphaoct-1-yl]-1,2-ethanediyl]ester) was prepared in dry DMSO. See also, Improved indicators of cell membrane potential that use fluorescence resonance energy transfer, Gonzalez, J. E. and Tsien, R. Y. (1997) Chem. Biol. 4, 269-277.
# Voltage Assay Background Suppression Compound (VABSC-1) is prepared in H2O (89-363 mM, range used to maintain solubility)
# Human Serum (HS, Millipore #S1P1-01KL, or Sigma SLBR5469V and SLBR5470V as a 50%/50% mixture, for 25% assay final concentration)
# Bath 1 Buffer: • Sodium Chloride 160 mM (9.35 g/L), Potassium Chloride, 4.5 mM (0.335 g/L), Glucose 10 mM (1.8 g/L), Magnesium Chloride (Anhydrous) 1 mM (0.095 g/L), Calcium Chloride 2 mM (0.222 g/L), HEPES 10 mM (2.38 g/L) in water. […]
# human NaV 1.8, sequence (Q9Y5Y9 126-1722 limits assumed): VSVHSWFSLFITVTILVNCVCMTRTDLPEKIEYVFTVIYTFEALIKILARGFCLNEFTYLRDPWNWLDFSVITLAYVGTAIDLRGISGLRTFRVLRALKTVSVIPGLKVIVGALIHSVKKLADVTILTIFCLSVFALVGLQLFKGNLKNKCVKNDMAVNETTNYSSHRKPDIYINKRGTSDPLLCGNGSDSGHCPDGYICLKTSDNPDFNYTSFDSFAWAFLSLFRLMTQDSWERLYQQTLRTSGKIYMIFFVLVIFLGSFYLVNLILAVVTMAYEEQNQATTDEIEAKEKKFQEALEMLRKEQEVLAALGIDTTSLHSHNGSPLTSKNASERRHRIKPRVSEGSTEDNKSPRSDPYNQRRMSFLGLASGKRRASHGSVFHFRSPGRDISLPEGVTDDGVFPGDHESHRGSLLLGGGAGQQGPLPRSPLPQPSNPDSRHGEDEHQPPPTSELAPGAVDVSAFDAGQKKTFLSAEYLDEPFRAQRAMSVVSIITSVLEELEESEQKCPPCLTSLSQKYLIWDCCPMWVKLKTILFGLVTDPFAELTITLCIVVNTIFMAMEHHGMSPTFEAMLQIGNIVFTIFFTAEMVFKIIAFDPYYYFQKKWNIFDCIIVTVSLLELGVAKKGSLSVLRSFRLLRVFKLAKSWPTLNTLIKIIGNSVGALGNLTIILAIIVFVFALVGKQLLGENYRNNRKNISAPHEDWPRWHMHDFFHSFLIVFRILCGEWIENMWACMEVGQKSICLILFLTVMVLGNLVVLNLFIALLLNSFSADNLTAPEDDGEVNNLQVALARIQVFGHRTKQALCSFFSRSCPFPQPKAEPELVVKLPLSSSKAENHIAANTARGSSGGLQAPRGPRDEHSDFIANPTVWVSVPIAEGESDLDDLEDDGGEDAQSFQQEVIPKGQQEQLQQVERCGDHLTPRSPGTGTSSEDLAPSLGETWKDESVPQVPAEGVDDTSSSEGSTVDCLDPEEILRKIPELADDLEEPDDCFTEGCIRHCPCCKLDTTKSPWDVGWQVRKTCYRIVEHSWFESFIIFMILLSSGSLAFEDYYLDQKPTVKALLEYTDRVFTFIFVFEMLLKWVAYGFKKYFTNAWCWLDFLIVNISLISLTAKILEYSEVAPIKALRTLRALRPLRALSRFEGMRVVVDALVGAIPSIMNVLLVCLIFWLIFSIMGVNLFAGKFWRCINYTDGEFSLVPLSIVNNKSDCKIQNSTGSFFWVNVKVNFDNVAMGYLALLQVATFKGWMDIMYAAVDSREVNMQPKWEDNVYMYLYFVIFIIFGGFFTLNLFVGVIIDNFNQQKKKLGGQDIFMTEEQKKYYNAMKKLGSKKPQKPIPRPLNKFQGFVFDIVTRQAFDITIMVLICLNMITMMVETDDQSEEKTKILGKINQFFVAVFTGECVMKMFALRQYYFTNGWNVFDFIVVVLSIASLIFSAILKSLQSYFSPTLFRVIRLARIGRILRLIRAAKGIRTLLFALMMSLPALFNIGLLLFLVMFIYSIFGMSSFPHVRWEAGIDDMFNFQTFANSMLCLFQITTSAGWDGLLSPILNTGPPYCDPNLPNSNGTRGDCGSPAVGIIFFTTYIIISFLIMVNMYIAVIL
row,Structure (SMILES),IC50
1,"C[C@@]1(C(F)(F)F)C[C@H](c2ccc(OC(F)(F)F)cc2Cl)[C@@H](C(=O)Nc2ccc([C@@H](O)CO)nc2)O1 (single isomer, unassigned) [Compound 61, rel-(2S,3R,5S)-3-(2-chloro-4-(trifluoromethoxy)phenyl)-N-(6-((R*)-1,2-dihydroxyethyl)pyridin-3-yl)-5-methyl-5-(trifluoromethyl)tetrahydrofuran-2-carboxamide]",≥ 1000 nM
2,"C[C@]1(C(F)(F)F)C[C@@H](c2ccc(OC(F)(F)F)cc2Cl)[C@H](C(=O)Nc2ccc([C@@H](O)CO)nc2)O1 (single isomer, unassigned) [Compound 62, rel-(2R,3S,5R)-3-(2-chloro-4-(trifluoromethoxy)phenyl)-N-(6-((R*)-1,2-dihydroxyethyl)pyridin-3-yl)-5-methyl-5-(trifluoromethyl)tetrahydrofuran-2-carboxamide]",100 to 1000 nM
3,"C[C@@]1(C(F)(F)F)C[C@@H](c2ccc(OC(F)(F)F)cc2Cl)[C@H](C(=O)Nc2ccc([C@@H](O)CO)nc2)O1 (single isomer, unassigned) [Compound 63, rel-(2R,3S,5S)-3-(2-chloro-4-(trifluoromethoxy)phenyl)-N-(6-((R*)-1,2-dihydroxyethyl)pyridin-3-yl)-5-methyl-5-(trifluoromethyl)tetrahydrofuran-2-carboxamide]",≥ 1000 nM
4,"C[C@]1(C(F)(F)F)C[C@H](c2ccc(OC(F)(F)F)cc2Cl)[C@@H](C(=O)Nc2ccc([C@@H](O)CO)nc2)O1 (single isomer, unassigned) [Compound 64, rel-(2S,3R,5R)-3-(2-chloro-4-(trifluoromethoxy)phenyl)-N-(6-((R*)-1,2-dihydroxyethyl)pyridin-3-yl)-5-methyl-5-(trifluoromethyl)tetrahydrofuran-2-carboxamide]",≥ 1000 nM
5,"Cc1c([C@@H]2[C@@H](C(=O)Nc3ccc([C@@H](O)CO)nc3)O[C@@](C)(C(F)(F)F)[C@H]2C)ccc(F)c1F (single isomer, unassigned) [Compound 65, rel-(2S,3R,4S,5R)-3-(3,4-difluoro-2-methylphenyl)-N-(6-((R*)-1,2-dihydroxyethyl)pyridin-3-yl)-4,5-dimethyl-5-(trifluoromethyl)tetrahydrofuran-2-carboxamide]",≥ 1000 nM
6,"Cc1c([C@H]2[C@H](C(=O)Nc3ccc([C@@H](O)CO)nc3)O[C@@](C)(C(F)(F)F)[C@H]2C)ccc(F)c1F (single isomer, unassigned) [Compound 66, rel-(2R,3S,4S,5R)-3-(3,4-difluoro-2-methylphenyl)-N-(6-((R*)-1,2-dihydroxyethyl)pyridin-3-yl)-4,5-dimethyl-5-(trifluoromethyl)tetrahydrofuran-2-carboxamide]",10 to 100 nM
7,"Cc1c([C@@H]2[C@@H](C)[C@@](C)(C(F)(F)F)O[C@H]2C(=O)Nc2ccc([C@@H](O)CO)nc2)ccc(F)c1F (single isomer, unassigned) [Compound 67, rel-(2R,3S,4R,5S)-3-(3,4-difluoro-2-methylphenyl)-N-(6-((R*)-1,2-dihydroxyethyl)pyridin-3-yl)-4,5-dimethyl-5-(trifluoromethyl)tetrahydrofuran-2-carboxamide]",≥ 1000 nM
8,"Cc1c([C@@H]2[C@@H](C(=O)Nc3ccc([C@@H](O)CO)nc3)O[C@](C)(C(F)(F)F)[C@@H]2C)ccc(F)c1F (single isomer, unassigned) [Compound 68, rel-(2S,3R,4R,5S)-3-(3,4-difluoro-2-methylphenyl)-N-(6-((R*)-1,2-dihydroxyethyl)pyridin-3-yl)-4,5-dimethyl-5-(trifluoromethyl)tetrahydrofuran-2-carboxamide]",≥ 1000 nM
9,"COc1c([C@@H]2[C@@H](C(=O)Nc3ccc([C@@H](O)CO)nc3)O[C@](C)(C(F)(F)F)[C@@H]2C)cccc1C(F)(F)F (single isomer, unassigned) [Compound 69, rel-(2S,3R,4R,5S)-N-(6-((R*)-1,2-dihydroxyethyl)pyridin-3-yl)-3-(2-methoxy-3-(trifluoromethyl)phenyl)-4,5-dimethyl-5-(trifluoromethyl)tetrahydrofuran-2-carboxamide]",≥ 1000 nM
10,"COc1c([C@H]2[C@H](C(=O)Nc3ccc([C@@H](O)CO)nc3)O[C@@](C)(C(F)(F)F)[C@H]2C)cccc1C(F)(F)F (single isomer, unassigned) [Compound 70, rel-(2R,3S,4S,5R)-N-(6-((R*)-1,2-dihydroxyethyl)pyridin-3-yl)-3-(2-methoxy-3-(trifluoromethyl)phenyl)-4,5-dimethyl-5-(trifluoromethyl)tetrahydrofuran-2-carboxamide]",< 10 nM
11,"COc1c([C@H]2[C@H](C(=O)Nc3cnc(C(O)CO)nc3)O[C@@](C)(C(F)(F)F)[C@H]2C)cccc1C(F)(F)F (single isomer, unassigned) [Compound 71]",100 to 1000 nM

# Further lines, results first:
row,IC50,Structure (SMILES)
1,≥ 1000 nM,"COc1c([C@@H]2[C@@H](C(=O)Nc3cnc(C(O)CO)nc3)O[C@](C)(C(F)(F)F)[C@@H]2C)cccc1C(F)(F)F (single isomer, unassigned) [Compound 72]"
2,10 to 100 nM,"COc1c([C@H]2[C@H](C(=O)Nc3cnc(C(O)CO)nc3)O[C@@](C)(C(F)(F)F)[C@H]2C)cccc1C(F)(F)F (single isomer, unassigned) [Compound 73]"
3,≥ 1000 nM,"CCOc1ccc([C@H]2[C@H](C(=O)Nc3ccc([C@@H](O)CO)nc3)O[C@@](C)(C(F)(F)F)[C@H]2C)c2c1OC(F)(F)O2 (single isomer, unassigned) [Compound 75, rel-(2R,3S,4S,5R)-N-(6-((R*)-1,2-dihydroxyethyl)pyridin-3-yl)-3-(7-ethoxy-2,2-difluorobenzo[d][1,3]dioxol-4-yl)-4,5-dimethyl-5-(trifluoromethyl)tetrahydrofuran-2-carboxamide]"
4,≥ 1000 nM,"Cc1c([C@@H]2[C@@H](C)[C@@](C)(C(F)(F)F)O[C@H]2C(=O)Nc2ccc(CO)nc2)ccc(F)c1F (single isomer, unassigned) [Compound 77]"
5,≥ 1000 nM,"Cc1c([C@@H]2[C@@H](C(=O)Nc3ccc(CO)nc3)O[C@](C)(C(F)(F)F)[C@@H]2C)ccc(F)c1F (single isomer, unassigned) [Compound 78]"
6,≥ 1000 nM,"Cc1c([C@@H]2[C@@H](C(=O)Nc3ccc(CO)nc3)O[C@@](C)(C(F)(F)F)[C@H]2C)ccc(F)c1F (single isomer, unassigned) [Compound 79]"
7,< 10 nM,"Cc1c([C@H]2[C@H](C(=O)Nc3ccc(CO)nc3)O[C@@](C)(C(F)(F)F)[C@H]2C)ccc(F)c1F (single isomer, unassigned) [Compound 80]"
8,≥ 1000 nM,"COc1c(C2C(C(=O)Nc3ccc(CO)nc3)OC(C)(C(F)(F)F)C2C)cccc1C(F)(F)F (single isomer, unassigned) [Compound 81]"
9,< 10 nM,"COc1c(C2C(C(=O)Nc3ccc(CO)nc3)OC(C)(C(F)(F)F)C2C)cccc1C(F)(F)F (single isomer, unassigned) [Compound 82]"
10,≥ 1000 nM,"COc1c(C2C(C(=O)Nc3ccc(CO)nc3)OC(C)(C(F)(F)F)C2C)ccc(C(F)F)c1F (single isomer, unassigned) [Compound 90]"
11,10 to 100 nM,"COc1c(C2C(C(=O)Nc3ccc(CO)nc3)OC(C)(C(F)(F)F)C2C)ccc(C(F)F)c1F (single isomer, unassigned) [Compound 91]"
